Type in all cases: in vivo
For one data set, the system named is Glycine max (GLXMA). The experiment in a line: Post-emergence crop plant compatibility, greenhouse pot test. In short, it runs like this:
(§1)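 Visual % damage scores were taken roughly 3 weeks after treatment, relative to untreated plants, where 100% means plants died and 0% means no difference. Plants received aqueous sprays (WP or EC, 0.5% additive, 600 l/ha) on green parts at the one-leaf stage, 2–3 weeks after sowing.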

Data set [1] has as its system Triticum aestivum (TRZAS). Described as above. Summed up:
as §1

In data set [2] the test system is Pharbitis purpurea (PHBPU). The experiment in a line: Post-emergence herbicidal action, greenhouse pot test. In short, it runs like this: (§2)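 Visual scoring against untreated plants (100% = dead, 0% = no effect), done about 3 weeks after treatment. Aqueous spray of WP or EC formulations plus 0.5% additive at 600 l/ha went onto green parts of one-leaf-stage, greenhouse-grown pot plants 2–3 weeks after sowing.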

Another data set deals with Lolium rigidum (LOLRI). Described as above. In short, it runs like this: as §2
Data set [3] relates to Echinochloa crus-galli (ECHCG). The description is as above. Summed up:
as §2

A further data set relates to Bassia scoparia (KCHSC). Described as above. In short, it runs like this:
as §2

The subject of another data set is Setaria viridis (SETVI). The data set is described as above. Summed up:
as §2

Data set [4] deals with Alopecurus myosuroides (ALOMY). The data set is described as above. In short, it runs like this: as §2
Data set [5] deals with Abutilon theophrasti (ABUTH). The description is as above. In short, it runs like this: as §2
The test system of data set [6] is Tripleurospermum inodorum (MATIN). The description is as above. As to conditions: 20 g/ha. In short, it runs like this: as §2
A further data set has as its system Viola tricolor (VIOTR). The description is as above. In short, it runs like this:
as §2

For data set [7], the system named is Amaranthus retroflexus (AMARE). Described as above. Summed up: as §2
Data set [8] deals with Polygonum convolvulus (POLCO). The data set is described as above. In short, it runs like this:
as §2

Data set [9] deals with Digitaria sanguinalis (DIGSA). Described as above. In short, it runs like this: as §2
The test system of another data set is Veronica persica (VERPE). Described as above. Summed up: as §2
For the next data set, the system named is Oryza sativa (ORYSA). The experiment in a line: Post-emergence crop plant compatibility, greenhouse pot test. The following applies: Oryza sativa, in vivo. Summed up: as §1
Another data set concerns Zea mays (ZEAMX). The description is as above. The following applies: Zea mays, in vivo. In short, it runs like this:
as §1

In a further data set the test system is Avena fatura (AVEFA). Description: Comparative post-emergence herbicidal action, greenhouse pot test. The following applies: Table B3 comparison, application rate 20 g/ha. As for the experimental part:
Seeds of monocotyledonous and dicotyledonous weeds and crop plants were placed in sandy loam in plastic or wood-fibre pots, covered with soil and cultivated in a greenhouse under controlled growth conditions. 2 to 3 weeks after sowing, the test plants were treated at the one-leaf stage. The compounds of the invention, formulated in the form of wettable powders (WP) or as emulsion concentrates (EC), were then sprayed onto the green parts of the plants as aqueous suspension or emulsion with addition of 0.5% additive at a water application rate of 600 l/ha (converted). After the test plants had been kept in the greenhouse under optimum growth conditions for about 3 weeks, the activity of the preparations was rated visually in comparison to untreated controls. For example, 100% activity=the plants have died, 0% activity=like control plants.
Tables B1-B5 below show the effects of inventive compounds (I.7-12, I.7-14, I.7-16) that have been obtained by the test method specified above on various harmful plants at an application rate corresponding to 20 g/ha or lower by comparison with structurally similar compounds known from the literature (“a-27”, “a-29”, disclosed in WO2002/098227).

Where [10] appears, read: crop plant, post-emergence, 1.25 g/ha.

Consider `CC(OC(=O)COc1ccccc1Oc1cc(-n2c(=O)cc(C(F)(F)F)n(C)c2=O)c(F)cc1Cl)C1CCCC1` (centres unmarked) [I.7-13], for which the “Post-emergence effect at 1.25 g/ha against GLXMA in %” value in the data set on Glycine max (GLXMA) (setting [10]) is given as 20%. In [1] (setting [10]), the “Post-emergence effect at 1.25 g/ha against TRZAS in %” value is on record as 20%. For the same compound, in data set [2] (1.25 g/ha), the “Post-emergence effect at 1.25 g/ha against PHBPU in %” value turned out to be 100%. In data set [2] (5 g/ha), the “Post-emergence effect at 5 g/ha against PHBPU in %” value is on record as 100%. In addition, the “Post-emergence effect at 20 g/ha against PHBPU in %” value in data set [2] (20 g/ha) is 100%. The “Post-emergence effect at 20 g/ha against LOLRI in %” value with Lolium rigidum (LOLRI) turned out to be 80%. For the same compound, the “Post-emergence effect at 1.25 g/ha against ECHCG in %” value in [3] (1.25 g/ha) was 80%. For the same compound, in data set [3] (5 g/ha), the “Post-emergence effect at 5 g/ha against ECHCG in %” value amounted to 90%. Moreover, in [3] (20 g/ha), the “Post-emergence effect at 20 g/ha against ECHCG in %” value is 100%. Further, the “Post-emergence effect at 5 g/ha against KCHSC in %” value in the data set with Bassia scoparia (KCHSC) (5 g/ha) came to 100%. Further, in the data set with Bassia scoparia (KCHSC) (20 g/ha), the “Post-emergence effect at 20 g/ha against KCHSC in %” value is on record as 100%. The “Post-emergence effect at 1.25 g/ha against SETVI in %” value with Setaria viridis (SETVI) (1.25 g/ha) is listed as 100%. Also, the “Post-emergence effect at 5 g/ha against SETVI in %” value in the data set with Setaria viridis (SETVI) (5 g/ha) came to 100%. The “Post-emergence effect at 20 g/ha against SETVI in %” value in the data set on Setaria viridis (SETVI) (20 g/ha) worked out at 100%. In [4] (20 g/ha), the “Post-emergence effect at 20 g/ha against ALOMY in %” value is recorded as 80%. Also, the “Post-emergence effect at 1.25 g/ha against ABUTH in %” value in [5] (1.25 g/ha) is listed as 80%. For the same compound, the “Post-emergence effect at 5 g/ha against ABUTH in %” value in data set [5] (5 g/ha) is 100%. Besides, in [5] (20 g/ha), the “Post-emergence effect at 20 g/ha against ABUTH in %” value came to 100%. The “Post-emergence effect at 20 g/ha against MATIN in %” value in data set [6] is on record as 80%. For the same compound, the “Post-emergence effect at 1.25 g/ha against VIOTR in %” value in the data set with Viola tricolor (VIOTR) (1.25 g/ha) is 90%. Moreover, in the data set with Viola tricolor (VIOTR) (5 g/ha), the “Post-emergence effect at 5 g/ha against VIOTR in %” value is recorded as 100%. In addition, in the data set on Viola tricolor (VIOTR) (20 g/ha), the “Post-emergence effect at 20 g/ha against VIOTR in %” value was determined as 100%. For the same compound, the “Post-emergence effect at 1.25 g/ha against AMARE in %” value in data set [7] (1.25 g/ha) came out at 100%. In [7] (5 g/ha), the “Post-emergence effect at 5 g/ha against AMARE in %” value is recorded as 100%. In addition, the “Post-emergence effect at 20 g/ha against AMARE in %” value in data set [7] (20 g/ha) was 100%. The “Post-emergence effect at 5 g/ha against POLCO in %” value in data set [8] (5 g/ha) amounted to 100%. Also, the “Post-emergence effect at 20 g/ha against POLCO in %” value in data set [8] (20 g/ha) turned out to be 100%. The “Post-emergence effect at 5 g/ha against DIGSA in %” value in data set [9] (5 g/ha) was 100%. Also, in data set [9] (20 g/ha), the “Post-emergence effect at 20 g/ha against DIGSA in %” value turned out to be 100%. The “Post-emergence effect at 1.25 g/ha against VERPE in %” value in the data set with Veronica persica (VERPE) (1.25 g/ha) was determined as 100%. The “Post-emergence effect at 5 g/ha against VERPE in %” value with Veronica persica (VERPE) (5 g/ha) was found to be 100%. For the same compound, the “Post-emergence effect at 20 g/ha against VERPE in %” value with Veronica persica (VERPE) (20 g/ha) was determined as 100%.

In the case of `Cn1c(C(F)(F)F)cc(=O)n(-c2cc(Oc3ccccc3OCC(=O)OCC3CC3)c(Br)cc2F)c1=O` [I.8-1, Cyclopropylmethyl (2-{2-bromo-4-fluoro-5-[3-methyl-2,6-dioxo-4-(trifluoromethyl)-3,6-dihydropyrimidin-1(2H)-yl]phenoxy}phenoxy)acetate], in the data set with Glycine max (GLXMA) (Glycine max, in vivo), the “Post-emergence effect at 1.25 g/ha against GLXMA in %” value was 0%. Besides, in data set [1] (Triticum aestivum, in vivo), the “Post-emergence effect at 1.25 g/ha against TRZAS in %” value is listed as 0%. Moreover, in data set [1] (Triticum aestivum, in vivo), the “Post-emergence effect at 20 g/ha against TRZAS in %” value was 0%. In the data set with Oryza sativa (ORYSA), the “Post-emergence effect at 1.25 g/ha against ORYSA in %” value was 0%. Besides, the “Post-emergence effect at 5 g/ha against ORYSA in %” value with Oryza sativa (ORYSA) came to 0%. In the data set with Oryza sativa (ORYSA), the “Post-emergence effect at 20 g/ha against ORYSA in %” value turned out to be 20%. Besides, the “Post-emergence effect at 1.25 g/ha against ZEAMX in %” value in the data set with Zea mays (ZEAMX) is 0%. The pest or weed control at 5 g/ha worked out at 80% in data set [2] (Ipomoea purpurea, 504 h, 5 g/ha, read-out: Post-emergence effect at 5 g/ha against PHBPU in %); 100% in the data set with Setaria viridis (SETVI) (Setaria viridis, 504 h, 5 g/ha, read-out: Post-emergence effect at 5 g/ha against SETVI in %); 100% in data set [5] (Abutilon theophrasti, 504 h, 5 g/ha, read-out: Post-emergence effect at 5 g/ha against ABUTH in %); 100% in data set [7] (Amaranthus retroflexus, 504 h, 5 g/ha, read-out: Post-emergence effect at 5 g/ha against AMARE in %); 100% in data set [8] (Fallopia convolvulus, 504 h, 5 g/ha, read-out: Post-emergence effect at 5 g/ha against POLCO in %); 100% with Veronica persica (VERPE) (Veronica persica, 504 h, 5 g/ha, read-out: Post-emergence effect at 5 g/ha against VERPE in %). Moreover, the pest or weed control at 20 g/ha in data set [2] (Ipomoea purpurea, 504 h, 20 g/ha, read-out: Post-emergence effect at 20 g/ha against PHBPU in %) came to 100%; in data set [3] (Echinochloa crus-galli, 504 h, 20 g/ha, read-out: Post-emergence effect at 20 g/ha against ECHCG in %) it was 100%; with Setaria viridis (SETVI) (Setaria viridis, 504 h, 20 g/ha, read-out: Post-emergence effect at 20 g/ha against SETVI in %), 100%; in data set [4] (Alopecurus myosuroides, 504 h, 20 g/ha, read-out: Post-emergence effect at 20 g/ha against ALOMY in %) it was 100%; in [5] (Abutilon theophrasti, 504 h, 20 g/ha, read-out: Post-emergence effect at 20 g/ha against ABUTH in %), 100%; in [6] (Tripleurospermum inodorum, 504 h, read-out: Post-emergence effect at 20 g/ha against MATIN in %), 100%. The pest or weed control at 20 g/ha in the data set with Viola tricolor (VIOTR) (Viola tricolor, 504 h, 20 g/ha, read-out: Post-emergence effect at 20 g/ha against VIOTR in %) amounted to 100%; in [7] (Amaranthus retroflexus, 504 h, 20 g/ha, read-out: Post-emergence effect at 20 g/ha against AMARE in %), 100%; in data set [8] (Fallopia convolvulus, 504 h, 20 g/ha, read-out: Post-emergence effect at 20 g/ha against POLCO in %), 100%; with Veronica persica (VERPE) (Veronica persica, 504 h, 20 g/ha, read-out: Post-emergence effect at 20 g/ha against VERPE in %), 100%. The pest or weed control at 1.25 g/ha in data set [7] (Amaranthus retroflexus, 504 h, 1.25 g/ha, read-out: Post-emergence effect at 1.25 g/ha against AMARE in %) is 100%.

Regarding `Cn1c(C(F)(F)F)cc(=O)n(-c2cc(Oc3ccccc3OCC(=O)OC3CCCC3)c(Cl)cc2F)c1=O` [a-27, reference compound], in the data set on Avena fatura (AVEFA), the “AVEFA (efficacy in %)” value worked out at 40%. In addition, the “ECHCG (efficacy in %)” value in data set [3] (Table B2 comparison, application rate 1.25 g/ha) is recorded as 30%. Further, the “ALOMY (efficacy in %)” value in [4] (Table B1 comparison, application rate 20 g/ha) was 80%.

Source of the values: US20260138958A1, “SUBSTITUTED N-PHENYLURACILS AND SALTS THEREOF, AND USE THEREOF AS HERBICIDAL ACTIVE SUBSTANCES” (Bayer Aktiengesellschaft, priority 2022, published 2026).
